Data published in patent US4340602A, “Compositions inhibiting estrogen sulfotransferase activity” (Wayne State University, priority 1978, dated 1982).
Where two headings read alike, the source gives them in different places.

Columns and labels:
in vitro = in vitro ADME, porcine; conditions: pig, minced uterus
Text: (§1) Animals. Gilts (virgin female pigs) or sows (previously pregnant pigs) in estrus from the pig farm at Michigan State University were mated with boars of established fertility. Following insemination, the females were sacrificed at various times up to 25 days later. Uteri were removed and immediately chilled on ice. Fertilization was confirmed initially by microscopic examination of oviductal washings for fertilized ova (2-5 days following insemination) by histological inspection of the corpus luteum and uterus (8-13 days) and later (17-25 days) by gross inspection of the uterus for the amniotic sac and fetuses.
(§2) Radioisotopes. [6,7-^3 H]E2 (45 Ci/mmol) was obtained from New England Nuclear Corp., Boston, Mass., and purified on ITLC-SA (Gelman Instrument Co.) with CHCl3 :CH3 OH (97:3) as the developing solvent. Na2^35 SO4 (800-1000 mCi/mmol) was obtained from New England Nuclear Corp. and used directly from the bottle.
(§3) Incubation and isolation of [^3 H]E2 and Na2^35 SO4 metabolites. Samples of whole uterus (400 mg), minced in 0.9% saline, were filtered over medium coarse nylon gauze and placed in 2.5 ml of a modified Krebs-Ringer bicarbonate buffer (MgCl2 instead of MgSO4) with glucose (1.5 mg/ml). After the [6,7-^3 H]E2 (3×10^-9 M) and Na2^35 SO4 (1×10^-4 M) were added, the mixture was incubated for 2 hr at 37° C. under […]. The incubate was then boiled for 2 min. to stop the enzymatic reactions. A control was included with each experiment, which contained all of the incubation mixture, and was carried throughout the entire procedure except for the actual incubation.
(§4) The filtered tissue was extracted in 2:1 CHCl3 :CH3 OH (10 ml) for 2 hr, and this extract, reduced almost to dryness, was recombined with the incubation supernatant. This combination in turn was extracted with ethyl acetate (2.5 ml, 3 times) at neutral pH in the presence of (NH4)2 SO4 (0.5 g/ml). The concentrated extract was applied to an alumina column in benzene. After the column was washed with benzene, the unconjugated estrogens were eluted with 100 ml ethanol and the estrogen sulfates with ethanol:water (1:1, 100 ml). The conjugated fraction was further separated from trailing free estrogens by a single development of instant thin layer chromatography (SG; chloroform:acetone:acetic acid, 110:35:6). Marker estrogen sulfates run simultaneously were identified by staining with 50% methylene blue reagent (25 mg % methylene blue in 0.05 N sulfuric acid) in acetone.
(§5) The estrogen sulfates were hydrolyzed with aryl sulfatase^3 (5 mg/10 ml) in 0.1 M sodium acetate buffer (pH 5) for two days at 37° C. (without shaking or mixing) and the estrogen moiety extracted into ether. Both the unconjugated estrogens and those hydrolyzed from sulfate esters were further purified by the procedure of Brooks et al, Biochim. Biophys. Acta, 104:250-260 (1965) and the metabolites identified and quantitated on instant thin layer chromatography (SA; chloroform:methanol, 97:3) in accordance with Pack et al (1974), supra.

[1] = tested on: uteri obtained from fertilized pigs; test: in vitro; type: in vitro ADME, porcine; conditions: 0.003 µM
Text: as §1, §2, §3, §4, §5

[2] = tested on: uteri obtained from fertilized pigs; conditions: average, uteri undergoing normal estrous cycle, regardless of phase; 0.003 µM; cited from earlier work

metabolised at 2 h, 0.003 µM (in vitro; 2-hour incubation, day of insemination, read-out: sulfurylation of the 3-hydroxyl group, day of insemination): 3%
metabolised at 2 h, 0.003 µM (in vitro; Table III mean line (SD ± 5.7 on next line), read-out: Percent of added E2 found as Free E1, mean): 16.6%
metabolised at 2 h, 0.003 µM (in vitro; Table III, 25 (A), anovulatory gilt, 2 h incubation, read-out: Percent of added E2 found as Total E1, anovulatory gilt): 12.9%
sulfurylation in gilt uterus ([1]; 2-hour incubation, 5 to 23 days following fertilization, P<0.05 vs sow): 57.2±8.9%
sulfurylation in sow uterus ([1]; 2-hour incubation, 8 to 25 days following fertilization, P<0.05 vs gilt): 41.2±6.0%
Percent of added E2 found as E1 S, mean ([1]; Table III mean line, days 5-25 (SD ± 6.4)): 32.6%
Percent of added E2 found as Total E1, mean ([1]; Table III mean line, days 5-25 (SD ± 10.1)): 49.8%
Percent of added E2 found as Free E1 ([1]; Table III, 2 h incubation, 3×10^-9 M [3H]E2, by days following fertilization (S sow, G gilt), listed as E2, 120 min): 16.4%
conversion of added labeled E2 to E1 ([1]; metestrus, uteri from fertilized pigs): 13.6%
SMILES: C[C@]12CC[C@@H]3c4ccc(O)cc4CC[C@H]3[C@@H]1CC[C@@H]2O [1,3,5(10)Estratriene-3,17β-diol]
added E2 found as free E1, normal estrous cycle [2]: 18.7±7.2%
